Assay results: patent US11578055B2, “Triazacyclododecansulfonamide (“TCD”)-based protein secretion inhibitors” (KEZAR LIFE SCIENCES, priority 2018, dated 2023)
Where two headings read alike, the source gives them in different places.

Legend:
[1] = system: PD1 signal sequence plus 10 amino acids fused to Gaussia Luciferase (PD1-ss+10aa/Gaussia Luciferase); assay: Dox Induced PD1-ss-Gluc Assay; assay type: cell-based; details: 24 hr, 293FRT/TO; read-out: 24 hr Dox Inducible PD1ssGluc 293FRT/TO: Mean IC50
From the text: FIp-In 293 T-REx™ cells were transfected with pcDNA™5/FRT/TO plasmid inserted with cDNA encoding Gaussia Luciferase fused to the 3′ end of cDNA encoding PD1 signal sequence plus 10 amino acids (N-[…]-C) (SEQ ID NO: 1). Transfected cells were selected for resistance to the selectable markers Hygromycin and Blasticidin to create a stable cell line that contained the PD1-ss+10aa/Gaussia Luciferase cDNA insert whose expression was regulated under the T-REx™ system. The day before assay, cells were trypsinized and plated in 384-well tissue culture plates. The next day, compound dilutions in DMSO/media containing doxycycline were added to the wells and incubated at 37° C., 5% CO2.
(§1) For chemical structures that include one or more stereoisomers, but are illustrated without indicating stereochemistry, the assay data refers to a mixture of stereoisomers.

[2] = system: full length TNFα (amino acids 1-233) fused to Gaussia Luciferase; assay: Dox Induced TNFα-FL-Gluc Assay; assay type: cell-based; details: 24 hr, 293FRT/TO; read-out: 24 hr Dox Inducible TNFaFLGluc 293FRT/TO: Mean IC50
From the text: FIp-In 293 T-REx™ cells were transfected with pcDNA™5/FRT/TO plasmid inserted with cDNA encoding Gaussia Luciferase fused to the 3′ end of cDNA encoding full length TNFα (amino acids 1-233). Transfected cells were selected for resistance to the selectable markers Hygromycin and Blasticidin to create a stable cell line that contained the TNFα-FL/Gaussia Luciferase cDNA insert whose expression was regulated under the T-REx™ system. The day before assay, cells were trypsinized and plated in 384-well tissue culture plates. The next day, compound dilutions in DMSO/media containing doxycycline were added to the wells and incubated at 37° C., 5% CO2.
as §1

[3] = system: multiple myeloma cell line NCl-H929; assay: H929 Cell Viability Assay; assay type: cell-based, human; details: Homo sapiens, NCI-H929, 48 h
Description: The human multiple myeloma cell line NCl-H929 was cultured in Advanced RPMI 1640 media (Gibco®) supplemented with 6% fetal bovine serum, 2 mM Glutamine, and 1× Penicillin/Streptomycin. On the day of assay, cells were resuspended in RPMI 1640 media supplemented with 10% fetal bovine serum, 2 mM Glutamine, and 1× Penicillin/Streptmycin and plated in 384-well tissue culture plates and treated with compound dilutions in DMSO/media. Plates were incubated at 37° C., 5% CO2 for 48 hours. After 48 hours, Celltiter-Glo® (Promega) was added to each well and luciferase signal was quantified using Tecan Infinite M1000 Pro for cell viability determination.
as §1

[4] = system: multiple myeloma cell line U266B1; assay: U266 Cell Viability Assay; assay type: cell-based, human; details: Homo sapiens, U-266, 48 hr
Description: The human multiple myeloma cell line U266B1 was cultured in RPMI 1640 media supplemented with 10% fetal bovine serum, 2 mM Glutamine, and 1× Penicillin/Streptomycin. Cells were plated in 384-well tissue culture plates and treated with compound dilutions in DMSO/media. Plates were incubated at 37° C., 5% CO2 for 48 hours. After 48 hours, Celltiter-Glo® (Promega) was added to each well and luciferase signal was quantified using Tecan Infinite M1000 Pro for cell viability determination.
For chemical structures that include one or more stereoisomers, but are illustrated without indicating stereochemistry, the assay data refers to a mixture of stereoisomers

[5] = In Vitro Microsome Stability Assay (human); assay type: in vitro ADME; details: human, 30 min, NADPH
Description: (§2) Potassium phosphate (423 μL of a 0.1 M solution) was added to 8-strip deep well tubes followed by human, mouse, rat, or monkey microsomes (25 μL of a 20 mg/mL solution). The tubes were then placed on ice and the test article (2 μL of a 0.25 mM solution in DMSO) was added. The mixture was preincubated at 37° C. for 3 to 5 minutes (shaking at 150 rpm) then the reaction was initiated by adding 50 μL NADPH. An aliquot of samples (100 μL) were collected at 0 and 30 min and 200 μL of an acetonitrile mixture containing IS (compound 914) was added to quench the reaction. After centrifuging for 10 min at 4000 rpm, a mixed solution of the 20 μL of the supernatant (20 μL) plus 100 μL ACN/H2O (1:1) were injected for LC-MS/MS analysis. Liver microsome stability is assessed by the % remaining of compound at 30 min which is calculated using the following equation: [(AUCanalyteT=30/AUCIS)/(AUCanalyteT=0/AUCIS)]*100
as §1

[6] = In Vitro Microsome Stability Assay (mouse); assay type: in vitro ADME; details: mouse, 30 min, NADPH
Description: as §2, §1

[7] = In Vitro Microsome Stability Assay (rat); assay type: in vitro ADME; details: rat, 30 min, NADPH
Description: as §2, §1

[8] = In Vitro Microsome Stability Assay (monkey); assay type: in vitro ADME; details: monkey, 30 min, NADPH
Description: as §2, §1

[9] = H929, read-out: 48 hr H929 Viability Celltiter-Glo: Mean EC50
[10] = U266, read-out: 48 hr U266 Viability Celltiter-Glo: Mean EC50

Row | SMILES | IC50 [1] | IC50 [2] | EC50 [3, 9] | EC50 [4, 10] | Liver Microsome Stability-% Left after 30 min w/ NADPH (%) Human [5] | Liver Microsome Stability-% Left after 30 min w/ NADPH (%) Mouse [6] | Liver Microsome Stability-% Left after 30 min w/ NADPH (%) Rat [7] | Liver Microsome Stability-% Left after 30 min w/ NADPH (%) Monkey [8] | EC50 ([3]; H929, Celltiter-Glo) | EC50 ([4]; U266, Celltiter-Glo)
1 | CN(C)c1ccc(S(=O)(=O)N2CCCN(CC3CCCCC3)CCCN(S(=O)(=O)N3CCC(c4ccccc4)CC3)CCC2)cc1 [A42, 4-{[5-(cyclohexylmethyl)-9-[(4-phenylpiperidin-1-yl)sulfonyl]-1,5,9-triazacyclododecan-1-yl]sulfonyl}-N,N-dimethylaniline] | 0.696 µM | > 25 µM | > 25 µM | > 25 µM | 2.65% | 0.79% | 7.69% | 0.81% |  | 
2 | C=C1CN(S(=O)(=O)c2ccc(N(C)C)cc2)CCCN(CC2CCCCC2)CCCN(S(=O)(=O)N2CCC(C3CCOCC3)CC2)C1 [A78, 4-{[9-(cyclohexylmethyl)-3-methylidene-5-{[4-(oxan-4-yl)piperidin-1-yl]sulfonyl}-1,5,9-triazacyclododecan-1-yl]sulfonyl}-N,N-dimethylaniline] | 0.36 µM | > 25 µM | > 25 µM | > 25 µM | 0.2% | 0.15% | 0.25% | 0.11% |  | 
3 | C=C1CN(S(=O)(=O)c2ccc(N(C)C)cc2)CCCN(CC2CCCCC2)CCCN(S(=O)(=O)N2CCC(C#N)CC2)C1 [A39, 1-{[9-(cyclohexylmethyl)-5-[4-(dimethylamino)benzenesulfonyl]-3-methylidene-1,5,9-triazacyclododecan-1-yl]sulfonyl}piperidine-4-carbonitrile] | 0.761 µM | > 25 µM | > 25 µM | 10.4 µM | 0.05% | 0.26% | 6% | 0.11% |  | 
4 | C=C1CN(S(=O)(=O)c2ccc(N(C)C)cc2)CCCN(CC2CCCCC2)CCCN(S(=O)(=O)N2CCC[C@H](c3ccccc3)C2)C1 [A49, 4-{[9-(cyclohexylmethyl)-3-methylidene-5-{[(3 R)-3-phenylpiperidin-1-yl]sulfonyl}-1,5,9-triazacyclododecan-1-yl]sulfonyl}-N,N-dimethylaniline] | 0.407 µM | > 25 µM | > 25 µM | > 25 µM | 3.5% | 11.8% | 16.4% | 9.36% |  | 
5 | C=C1CN(S(=O)(=O)CC)CCCN(CC2CCCCC2)CCCN(S(=O)(=O)c2ccc(C)cc2)C1 [A6, 9-(cyclohexylmethyl)-1-(ethanesulfonyl)-5-(4-methylbenzenesulfonyl)-3-methylidene-1,5,9-triazacyclododecane] | 4.75 µM | > 25 µM | 24.1 µM | > 25 µM | 0.53% | 0.12% | 0.17% | 0.44% |  | 
6 | COc1ccc(F)cc1N1CCN(S(=O)(=O)N2CCCN(CC3CCCCC3)CCCN(S(=O)(=O)c3ccc(N(C)C)cc3)C[C@H](C)C2)CC1 [A176] |  |  |  |  |  |  |  |  | 3.11 µM | > 25 µM
7 | CN(C)c1ccc(S(=O)(=O)N2CCCN(CC3CCCCC3)CCCN(S(=O)(=O)N3CCC(O)CC3)CC3(CC3)C2)cc1 [A28, 1-{[9-(cyclohexylmethyl)-13-[4-(dimethylamino)benzenesulfonyl]-5,9,13-triazaspiro[2.11]tetradecan-5-yl]sulfonyl}piperidin-4-ol] | 5.25 µM | > 25 µM | 10.4 µM | > 25 µM |  | 0.06% | 0.14% | 0.06% |  | 

More lines, now with the values ahead:

Row | IC50 [1] | IC50 [2] | EC50 [3, 9] | EC50 [4, 10] | Liver Microsome Stability-% Left after 30 min w/ NADPH (%) Human [5] | Liver Microsome Stability-% Left after 30 min w/ NADPH (%) Mouse [6] | Liver Microsome Stability-% Left after 30 min w/ NADPH (%) Rat [7] | Liver Microsome Stability-% Left after 30 min w/ NADPH (%) Monkey [8] | EC50 ([3]; H929, Celltiter-Glo) | EC50 ([4]; U266, Celltiter-Glo) | SMILES
8 | 0.0305 µM | 1.55 µM | 2.3 µM | > 25 µM | 0.3% | 0.08% | 0.16% | 0.23% |  |  | C=C1CN(S(=O)(=O)c2ccc(N(C)C)cc2)CCCN(CC2CCCCC2)CCCN(S(=O)(=O)N2CCc3nc(Cl)ccc3C2)C1 [A82, 4-({5-[(2-chloro-5,6,7,8-tetrahydro-1,6-naphthyridin-6-yl)sulfonyl]-9-(cyclohexylmethyl)-3-methylidene-1,5,9-triazacyclododecan-1-yl}sulfonyl)-N,N-dimethylaniline]
9 | 0.0328 µM | 1.26 µM | 1.63 µM | > 25 µM | 44.5% | 53.2% | 57.3% | 42.6% |  |  | C=C1CN(S(=O)(=O)c2ccc(N(C)C)cc2F)CCCN(CC2CCCCC2)CCCN(S(=O)(=O)N2CCc3cc(Cl)ccc3C2)C1 [A56, 4-({5-[(6-chloro-1,2,3,4-tetrahydroisoquinolin-2-yl)sulfonyl]-9-(cyclohexylmethyl)-3-methylidene-1,5,9-triazacyclododecan-1-yl}sulfonyl)-3-fluoro-N,N-dimethylaniline]
10 | 0.156 µM | 6.44 µM | > 25 µM | > 25 µM | 50.5% | 55.1% | 57.1% | 57.1% |  |  | C=C1CN(S(=O)(=O)c2ccc(N(C)C)cc2)CCCN(CC2CCCCC2)CCCN(S(=O)(=O)N2CC=C(C3=CCCCC3)CC2)C1 [A68, 4-[(5-{[4-(cyclohex-1-en-1-yl)-1,2,3,6-tetrahydropyridin-1-yl]sulfonyl}-9-(cyclohexylmethyl)-3-methylidene-1,5,9-triazacyclododecan-1-yl)sulfonyl}-N,N-dimethylaniline]
11 | 0.0461 µM | 1.3 µM | 3.02 µM | > 25 µM | 1.36% | 3.14% | 6.75% | 3.26% |  |  | C=C1CN(S(=O)(=O)c2ccc(N(C)C)cc2)CCCN(CC2CCCCC2)CCCN(S(=O)(=O)N2CCc3cc(C#N)ccc3C2)C1 [A70, 2-{[9-(cyclohexylmethyl)-5-[4-(dimethylamino)benzenesulfonyl]-3-methylidene-1,5,9-triazacyclododecan-1-yl]sulfonyl}-1,2,3,4-tetrahydroisoquinoline-6-carbonitrile]
